Test results reported in PubChem BioAssay (NCI).
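Each compound was tested at five concentrations against cells in 96-well plates for 48 hours. GI50: concentration for 50% inhibition of growth. The concentration for full growth arrest is given as TGI.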

Experiments:
Experiment in all cases: NCI-60 cell line screen, 48 h
[1] = tested on: HOP-62 NSCLC
[2] = tested on: SF-539 CNS
[3] = tested on: RPMI-8226 leukemia
[4] = tested on: MDA-MB-435
[5] = tested on: SF-295 CNS
[6] = tested on: NCI-H460 lung
[7] = tested on: NCI-H23 lung
[8] = tested on: LOX IMVI melanoma
[9] = tested on: OVCAR-3 ovarian
[10] = tested on: HS 578T breast
[11] = tested on: SK-MEL-2 melanoma
[12] = tested on: COLO 205 colon
[13] = tested on: HT29 colon
[14] = tested on: EKVX NSCLC
[15] = tested on: A549 NSCLC
[16] = tested on: MALME-3M melanoma
[17] = tested on: ACHN renal
[18] = tested on: SF-268 CNS
[19] = tested on: MDA-MB-231 breast

Compound | TGI [1] [µM] | TGI [2] [µM] | TGI [3] [µM] | TGI [4] [µM] | TGI [5] [µM] | TGI [6] [µM] | TGI [7] [µM] | TGI [8] [µM] | TGI [9] [µM] | TGI [10] [µM] | TGI [11] [µM] | TGI [12] [µM] | TGI [13] [µM] | TGI [14] [µM] | TGI [15] [µM] | TGI [16] [µM] | TGI [17] [µM] | TGI [18] [µM] | TGI [19] [µM] | GI50 [1] [µM]
COc1cc(C(=O)NNC(=O)c2cc(Br)ccc2NC(=O)c2cccs2)cc(OC)c1OC | 42.2 | 30 | 43.5 | 50 | 48.9 | 73.6 | 57.1 | 37.1 | > 100 | 62.1 | 44.9 | 25.5 | 41.1 | 27 | 61.3 | 86.1 | 43.6 | 29.3 |  | 
CC(=O)OCC(OC(C)=O)C1C[C@H]2O[C@@H]3[C@H](C[C@H]2O1)O[C@@]1(C[C@@H]3C)C[C@H](C)[C@@H]2O[C@]3(C[C@@H]2O1)C[C@H]1O[C@H]2[C@H](C)[C@H]4OC(=O)C[C@H]5CC[C@@H]6OC7[C@H]8O[C@]9(CC[C@H]%10CC(=O)[C@H](CC[C@H]%11C[C@@H](C)C(=O)C(C[C@@H]4O[C@H]2C[C@H]1O3)O%11)O%10)CC8O[C@@H]7[C@@H](O9)[C@H]6O5 (some centres undefined) | > 1 |  |  | 0.0171 |  | > 1 |  | > 0.859 | > 1 | 0.00604 | > 1 | 0.0749 |  | > 1 | > 1 |  | > 1 | > 1 | > 1 | 
Cc1[nH]c(=O)[nH]c(=O)c1/C=C/C(=O)NC(CO)CC(C)C (centres undefined) | > 375 | > 375 | > 375 |  | > 375 | > 187 | > 375 | > 375 | > 375 |  | > 375 | > 375 | > 375 | > 375 | > 375 | > 375 |  | > 375 |  | 
CCOC(=O)C1(CO)CSCCSC1 |  |  |  | > 100 | > 100 | > 100 | > 100 | > 100 |  | > 100 |  | > 100 | > 100 |  | > 100 |  | > 100 | > 100 | > 100 | 
COC(=O)c1ccccc1/C=C1\Cc2c(ccc3c2CCC3)C1=O | > 100 | > 100 | > 100 | > 100 | > 100 | > 100 | > 100 | > 100 | > 100 | > 100 | > 100 | > 100 | > 100 | > 100 | > 100 | > 100 | > 100 | > 100 |  | 
Nc1cc(Cl)cc2cc(Cl)cnc12 | > 100 | > 100 | > 100 | > 100 | > 100 | > 100 | > 100 | > 100 | > 100 | > 100 |  | > 100 | > 100 | > 100 | > 100 | > 100 | > 100 | > 100 | > 100 | 
O=S(=O)(O)CCSSCCS(=O)(=O)O | > 1000 | > 1000 | > 1000 | > 1000 | > 1000 | > 1000 | > 1000 | > 1000 | > 1000 |  | > 1000 | > 1000 | > 1000 | > 1000 | > 1000 | > 1000 | > 1000 | > 1000 | > 1000 | 
O=C(/C=C/c1cccc([N+](=O)[O-])c1)N1CCN(CCOC(c2ccccc2)c2ccccc2)CC1 | > 100 |  | 27.8 | > 100 | > 100 | > 100 | > 100 | 62.1 | > 100 |  |  | 91.9 | 71.5 | > 100 | > 100 | > 100 | > 100 |  |  | 
Cc1ccc2c(c1)C(=O)C1(C2)Cc2c(C)cccc2C1=O (centres undefined) | > 100 | > 100 | > 100 | > 100 | > 100 | > 100 | > 100 | > 100 | > 100 | > 100 |  | > 100 | > 100 | > 100 | > 100 | > 100 | > 100 | > 100 | > 100 | 
O=C1Cc2c([nH]c3ccc(Br)cc23)-c2cc(Br)ccc2N1 |  | > 100 | > 100 | > 100 | > 100 | > 100 | > 100 | > 100 |  |  | > 100 | > 100 |  | > 100 | > 100 |  | > 100 | > 100 | > 100 | 
CC12CCCC(C(=O)O)(C1)[C@H](C(C)(C)C(=O)O)CC2 (some centres undefined) | > 100 |  | > 100 | > 100 | > 100 | > 100 | > 100 | > 100 | > 100 | > 100 | > 100 | > 100 | > 100 | > 100 | > 100 | > 100 | > 100 | > 100 |  | 
N=C1C(=N)c2ccccc2-c2ccccc21.[Cl-].[Ru+2].c1cnc2c(c1)ccc1cccnc12.c1cnc2c(c1)ccc1cccnc12 | > 100 | 57.8 |  |  | > 100 | > 100 | > 100 | 75.1 | 68.6 |  | 91.4 |  | > 100 | 93.5 | > 100 | 73.6 | 76.6 | > 100 |  | 
NCc1ccc(-c2ccc(CN)s2)s1 | > 100 | > 100 | > 100 | > 100 | > 100 |  | > 100 | > 100 | > 100 |  | > 100 | > 100 | > 100 | > 100 | > 100 | > 100 | > 100 |  | > 100 | 
CCC1CN2CCc3cc(OC)c(OC)cc3C2CC1CC1c2cc(OC)c(OC)cc2CCN1C(=O)C(N)Cc1ccccc1 (centres undefined) | 7.78 | 7.48 | 6.07 |  | 10.3 | 9.23 | 7.64 | 10.9 | 15.4 |  | 6.1 |  | 10.4 | 4.37 | 7.85 | 6.46 | 11.8 | 13.7 |  | 
COc1cccc(Nc2nc(C)c([N+](=O)[O-])c(Nc3cccc(OC)c3)n2)c1 | 46.2 | > 100 | 45.9 |  | 47.9 | 19.8 | > 100 | > 100 | 57.2 | > 100 | 96.5 | 44.9 | > 100 | 78.4 | > 100 | > 100 | > 100 | > 100 | > 100 | 
O=C(O)c1cccc(Nc2c(C(=O)O)cccc2[N+](=O)[O-])c1 | > 100 | > 100 | > 100 |  | > 100 | > 100 | > 100 | > 100 | > 100 | > 100 | > 100 | > 100 | > 100 | > 100 | > 100 | > 100 | > 100 |  | > 100 | 
COC(=O)c1ccccc1/C=C1\Cc2c(C)c3c(c(C)c2C1=O)CCC3 | > 100 | > 100 | > 100 | > 100 | > 100 | > 100 | > 100 | > 100 | > 100 | 95.6 | > 100 | > 100 | > 100 | > 100 | > 100 | > 100 | > 100 | > 100 |  | 
CC(=O)OC1C=C(C=O)C(O)(C=O)C2(C)CCCC(C)(C)C12 (centres undefined) | 14.6 | 5.74 | 1.5 |  | 6.31 | 4.21 | 4.92 | 2.93 | 2.15 |  | 6.81 | 2.75 | 3.65 | 6.13 | 13.6 | 2.33 |  | 5.35 |  | 
COc1cc2c(/C=C3/C(=O)Nc4ccc(O)cc43)c(Cl)n(Cc3ccccc3)c2cc1C | 9.39 | 3.8 | 6.74 |  | 3.91 | > 43.4 | 3.89 | 24.9 | 0.704 | 3.36 | > 100 |  | 3.96 | > 100 | > 100 | 0.629 | 35.3 | 24.9 | 42 | 0.403
O=[N+]([O-])/C(C(Cl)=C(Cl)Cl)=C1\Nc2ccc([N+](=O)[O-])cc2N1 | > 100 |  | > 100 | > 100 | > 100 | > 100 | > 100 |  | > 100 |  | > 100 | > 100 |  | > 100 | > 100 | > 100 | > 100 | > 100 | > 100 | 
CC(C)=CCc1c(O)cc(O)c2c1OC(c1ccc(O)cc1)C(O)C2=O (centres undefined) | 36.3 | 35.5 |  |  | 67 | 77.3 | 45.8 | 35.7 | 36.7 |  | 50.9 | > 100 | 40.3 | 56.3 | 80.8 | 70.4 | 82.9 | > 100 |  | 
Cc1ccc(-c2c(C#N)c(-c3ccccc3)n(NS(=O)(=O)c3ccc(C)cc3)c(=O)c2C#N)cc1 | > 100 | > 100 | 31.6 | > 100 | > 100 | > 100 |  | > 100 |  |  | > 100 | > 100 | > 100 | > 100 | > 100 | > 100 | > 100 | > 100 | > 100 | 
CC(C)(C)c1cc(S(=O)(=O)O)c2oc(-c3ccccc3)cc(=O)c2c1 | > 100 | > 100 | > 100 | > 100 | > 100 | > 100 | > 100 | > 100 | > 100 | > 100 |  | > 100 | > 100 | > 100 | > 100 | > 100 | > 100 | > 100 | > 100 | 
C=CC(C)(C)n1cc(C2=C3OC(=O)C(c4cn(C(C)(C)C=C)c5ccccc45)=C3OC2=O)c2ccccc21 | > 100 | > 100 | > 100 | > 100 | > 100 | > 100 | > 100 | > 100 | > 100 |  | > 100 | > 100 | > 100 | > 100 | > 100 | > 100 | > 100 | > 100 | > 100 | 
C1=C(CC2=C[P+](c3ccccc3)(c3ccccc3)C=C(c3ccccc3)O2)OC(c2ccccc2)=C[P+]1(c1ccccc1)c1ccccc1 | 1.88 | 1.36 | 0.558 | 1.11 | 1.84 | 2.03 | 2.2 | 1.67 | 1.16 |  |  | 0.301 | 1.35 | 1.68 | 5.49 | 0.697 | 1.98 | 1.61 | 0.938 | 
NCC(Cl)C(O)c1cnc(N)[nH]1 (centres undefined) | 5.98 | 5.85 | 2.15 |  | 52.6 | > 44.1 | 16 | 16.8 | 16.2 |  | 18.3 | 5.51 | > 37.1 | 8.53 | 9.28 | 11.2 |  | > 73.8 |  | 
CCOC(=O)/C(C#N)=C/Nc1c(C)n(C)n(-c2ccccc2)c1=O |  | > 100 | > 100 | > 100 | > 100 |  | > 100 | > 100 | > 100 |  | > 100 | > 100 |  | > 100 | > 100 | > 100 | > 100 |  | > 100 | 
